Test results taken from ChEMBL document CHEMBL4732189, “A facile synthesis of diaryl pyrroles led to the discovery of potent colchicine site antimitotic agents” (Eur J Med Chem, 2021).
The source made the active and inactive calls. No cut-off for these calls is given here.

How the values were obtained:
[1] = Inhibition of bovine brain tubulin polymerization incubated for 15 mins followed by GTP addition and measured after 20 mins by spectrophotometric method; assay type: tissue-based, Bos taurus
[2] = test system: A549; assay: cells; conditions: Homo sapiens, A549, 72 h
Description: Antiproliferative activity against human A549 cells assessed as reduction in cell viability after 72 hrs by MTT assay

[3] = test system: HeLa; assay: Induction of apoptosis in human HeLa cells assessed as decrease in cleaved Bcl-2 protein expression at 50 nM after 24 to 48 hrs by Western blot analysis; assay type: functional, cell-based; conditions: time 24-48 hrs
[4] = test system: HT-29; assay: Induction of cell cycle arrest in human HT-29 cells assessed as decrease in accumulation at S phase at 1 to 100 nM after 24 hrs by propidium iodide staining based flow cytometric analysis; assay type: functional; conditions: dose 1-100 nM
[5] = test system: HeLa; assay: Induction of apoptosis in human HeLa cells at 50 nM after 24 to 48 hrs by annexinV-FITC/propidium iodide staining based flow cytometric analysis; assay type: functional, cell-based; conditions: time 24-48 hrs
[6] = test system: HeLa; assay: Induction of cell cycle arrest in human HeLa cells assessed as increase in cyclin B1 protein expression at 50 nM after 24 to 48 hrs by Western blot analysis; assay type: functional, cell-based; conditions: time 24-48 hrs
[7] = test system: HeLa; assay: Induction of cell cycle arrest in human HeLa cells assessed as decrease in accumulation at G1 phase at 1 to 100 nM after 24 hrs by propidium iodide staining based flow cytometric analysis; assay type: functional; conditions: dose 1-100 nM
[8] = test system: HeLa; assay: Induction of cell cycle arrest in human HeLa cells assessed as decrease in cdc25c protein expression at 50 nM after 24 to 48 hrs by Western blot analysis; assay type: functional, cell-based; conditions: time 24-48 hrs
[9] = test system: HT-29; assay: Induction of cell cycle arrest in human HT-29 cells assessed as increase in accumulation at G2/M phase after 24 hrs by propidium iodide staining based flow cytometric analysis; assay type: functional; conditions: dose 1-100 nM
[10] = test system: EO771; assay: Antitumour activity against mouse EO771 cells allografted in C57BL/6 mouse assessed as reduction in tumor volume at 5 mg/kg, ip; assay type: functional, organism-based
[11] = test system: CCRF-CEM; assay: Antiproliferative activity against human CCRF-CEM cells assessed as reduction in cell viability after 72 hrs by MTT assay; assay type: functional, cell-based
[12] = organism: Bos taurus; assay: Displacement of [3H]colchicine from bovine brain tubulin at 0.5 uM by DEAE-cellulose filter method relative to control; assay type: tissue-based
[13] = test system: HeLa; assay: Induction of cell cycle arrest in human HeLa cells assessed as increase in accumulation at G2/M phase after 24 hrs by propidium iodide staining based flow cytometric analysis; assay type: functional; conditions: dose 1-100 nM
[14] = Toxicity in C57BL/6 mouse allografted with mouse EO771 cells assessed as reduction in body weight at 15 mg/kg, ip; assay type: organism-based; conditions: in vivo
[15] = test system: HeLa; assay: Induction of apoptosis in human HeLa cells assessed as decrease in cleaved Mcl-1 protein expression at 50 nM after 24 to 48 hrs by Western blot analysis; assay type: functional, cell-based; conditions: time 24-48 hrs
[16] = test system: HeLa; assay: Induction of cell cycle arrest in human HeLa cells assessed as decrease in accumulation at S phase at 1 to 100 nM after 24 hrs by propidium iodide staining based flow cytometric analysis; assay type: functional; conditions: dose 1-100 nM
[17] = test system: HeLa; assay: cells; conditions: Homo sapiens, 72 h
Description: Antiproliferative activity against human HeLa cells assessed as reduction in cell viability after 72 hrs by MTT assay

[18] = test system: HeLa; assay: Induction of ROS generation in human HeLa cells assessed as increase in DCF fluorescence at 50 nM after 24 to 48 hrs by H2-DCFDA staining based flow cytometric analysis; assay type: functional, cell-based; conditions: time 24-48 hrs
[19] = target: Cyclin-dependent kinase 1 (Homo sapiens) (UniProt P06493); assay: Inhibition of cdc2 phosphorylation at Y15 residues in human HeLa cells at 25 to 50 nM after 24 to 48 hrs by Western blot analysis; assay type: cell-based; conditions: dose 25-50 nM, time 24-48 hrs
[20] = test system: EO771; assay: Antitumour activity against mouse EO771 cells allografted in ip dosed C57BL/6 mouse assessed as reduction in tumor mass; assay type: functional, organism-based; conditions: dose lower 5.0 mg/kg, dose upper […]
[21] = test system: HT-29; assay: cells; conditions: Homo sapiens, HT-29, 72 h
[22] = organism: Bos taurus; assay: Displacement of [3H]colchicine from bovine brain tubulin at 5 uM by DEAE-cellulose filter method relative to control; assay type: tissue-based
[23] = test system: HeLa; assay: Induction of apoptosis in human HeLa cells assessed as increase in cleaved PARP level at 25 nM after 24 hrs by Western blot analysis; assay type: functional, cell-based
[24] = test system: HL-60; assay: Antiproliferative activity against human HL-60 cells assessed as reduction in cell viability after 72 hrs by MTT assay; assay type: functional, cell-based; conditions: HL-60, 72 h
[25] = test system: PBL; assay: Cytotoxicity against PHA-induced human PBL cells assessed reduction in cell viability after 72 hrs by MTT assay; assay type: cell-based
[26] = test system: PBL; assay: Cytotoxicity against human PBL cells assessed reduction in cell viability after 72 hrs by MTT assay; assay type: cell-based
[27] = test system: HeLa; assay: Induction of apoptosis in human HeLa cells assessed as decrease in cleaved XIAP protein expression at 50 nM after 24 to 48 hrs by Western blot analysis; assay type: functional, cell-based; conditions: time 24-48 hrs
[28] = test system: SEM cells; assay: Antiproliferative activity against human SEM cells assessed as reduction in cell viability after 72 hrs by MTT assay; assay type: functional, cell-based
[29] = test system: HT-29; assay: Induction of cell cycle arrest in human HT-29 cells assessed as decrease in accumulation at G1 phase at 1 to 100 nM after 24 hrs by propidium iodide staining based flow cytometric analysis; assay type: functional; conditions: dose 1-100 nM

Cyclin-dependent kinase 1 (Homo sapiens), sequence (P06493 whole entry, looked up): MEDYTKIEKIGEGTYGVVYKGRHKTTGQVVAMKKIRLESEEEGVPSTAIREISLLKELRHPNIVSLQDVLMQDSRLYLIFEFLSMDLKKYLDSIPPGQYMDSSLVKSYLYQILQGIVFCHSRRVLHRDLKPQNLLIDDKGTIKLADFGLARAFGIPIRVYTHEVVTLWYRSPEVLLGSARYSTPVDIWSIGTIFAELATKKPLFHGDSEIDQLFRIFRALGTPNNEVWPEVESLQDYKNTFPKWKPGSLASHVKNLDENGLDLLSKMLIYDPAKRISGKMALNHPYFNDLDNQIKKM

- IC50 [1]: 660 nM
- IC50 [2]: 28 nM
- IC50 [11]: 7.5 nM
- inhibition [12]: 83%
- IC50 [17]: 26 nM
- inhibition [19]: Active
- IC50 [21]: 28 nM
- inhibition [22]: 93%
- IC50 [24]: 168 nM
SMILES: CCOc1ccc(-c2c[nH]cc2-c2cc(OC)c(OC)c(OC)c2)cc1F
- Activity [3]: Active
- Activity [4]: Active
- Activity [5]: Active
- Activity [6]: Active
- Activity [7]: Active
- Activity [8]: Active
- Activity [9]: Dose-dependent effect
- Activity [10]: Dose-dependent effect
- Activity [13]: Dose-dependent effect
- Activity [14]: Non-Toxic
- Activity [15]: Active
- Activity [16]: Active
- Activity [18]: Active
- Activity [20]: Dose-dependent effect
- Activity [23]: Active
- IC50 [25]: > 10000 nM
- IC50 [26]: > 10000 nM
- Activity [27]: Active
- IC50 [28]: 1.7 nM
- Activity [29]: Active
